Where two headings read alike, the source gives them in different places.
Legend:
RORγ = biological target: T1, RORγ (UniProt P51449); experiment: RORγ Gal4 Reporter Gene Assay in 293T cells (firefly and renilla luciferase); type: cell-based, human
T1 sequence (P51449 1-518): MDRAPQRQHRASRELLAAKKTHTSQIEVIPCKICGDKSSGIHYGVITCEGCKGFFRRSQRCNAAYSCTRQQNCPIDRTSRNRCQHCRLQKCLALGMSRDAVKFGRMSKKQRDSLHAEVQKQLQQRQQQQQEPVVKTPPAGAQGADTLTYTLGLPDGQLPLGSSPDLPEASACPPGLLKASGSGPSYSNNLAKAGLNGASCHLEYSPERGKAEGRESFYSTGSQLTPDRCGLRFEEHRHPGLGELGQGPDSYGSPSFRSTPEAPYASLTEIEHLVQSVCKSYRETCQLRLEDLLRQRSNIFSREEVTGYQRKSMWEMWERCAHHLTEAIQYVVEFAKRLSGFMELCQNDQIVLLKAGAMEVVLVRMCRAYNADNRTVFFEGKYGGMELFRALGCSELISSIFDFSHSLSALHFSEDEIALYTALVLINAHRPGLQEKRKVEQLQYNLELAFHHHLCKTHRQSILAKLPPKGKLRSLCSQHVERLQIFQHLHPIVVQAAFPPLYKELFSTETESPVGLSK

[1] = biological target: T2, RORγ ligand binding domain (LBD) (Homo sapiens, UniProt P51449); experiment: TR-FRET Activity Assay (ligand sensing, RORγ-LBD / coactivator peptide interaction, LANCE); type: biochemical
T2 construct: made in house; host or cells: E. coli BL-21 (BL3), vector pDEST15
T2 sequence (P51449 269-508 limits assumed): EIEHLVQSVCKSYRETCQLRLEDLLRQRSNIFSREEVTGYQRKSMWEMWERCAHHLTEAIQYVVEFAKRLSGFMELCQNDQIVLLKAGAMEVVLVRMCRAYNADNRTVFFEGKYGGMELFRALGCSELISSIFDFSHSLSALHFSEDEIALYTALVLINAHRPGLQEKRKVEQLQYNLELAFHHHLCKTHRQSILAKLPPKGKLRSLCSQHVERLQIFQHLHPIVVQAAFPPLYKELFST

[2] = second value of the cell, Gal4 reporter gene assay in 293T cells, firefly luciferase
[3] = third value of the cell, Gal4 reporter gene assay in 293T cells, renilla normalised luciferase
[4] = first value of the cell FRET/FF/REN, TR-FRET activity assay, read-out: pIC50 (FRET) (converted)

Row | Compound | pIC50 (FF) (RORγ; [2]) | pIC50 (REN) (RORγ; [3]) | IC50 [1, 4] [nM] | IC50 [1] [nM] | pIC50 (FF) (RORγ) | pIC50 (REN) (RORγ)
1 | Cc1c(C(=O)N[C@H]2C[C@H](C(=O)O)C2)cc(-c2cc(C(=O)N[C@@H](C)C(F)(F)F)cc(C3(C)CC3)c2)n1CC1CCCCC1 [17/358] | 6.3 | 6.2 | 1000 |  |  | 
2 | Cc1c(C(=O)NCC2COC2)cc(-c2ccc(S(=O)(=O)NC(C)(C)C)c(C(C)(C)C)c2)n1CC1CCCCC1 [1/126] | 7.1 | 7.0 | 631 |  |  | 
3 | Cc1c(C(=O)NC2CCOCC2)cc(-c2cc(C(=O)NC(C)C)cc(C(C)(C)O)c2)n1CC1CCCCC1 [17/323] | 5.6 | 5.7 | 7940 |  |  | 
4 | Cc1c(C(=O)N2CC3(C2)NC(=O)CNC3=O)cc(-c2ccc(S(=O)(=O)NC(C)(C)C)c(C(F)(F)F)c2)n1CC1CCCCC1 [17/294] | < 4.7 | < 4.7 | 3160 |  |  | 
5 | Cc1c(C(=O)NC2CC(C)(O)C2)cc(-c2cc(C(C)(C)C)c3c(c2)C2(CCO3)CC2)n1CC1CCCCC1 (centres unmarked) [17/22] | 6.5 | 6.6 | 1000 |  |  | 
6 | Cc1c(C(=O)N2CCC(C)(O)CC2)cc(-c2ccc(S(=O)(=O)NC(C)(C)C)c(C(C)(C)C)c2)n1CC1CCCCC1 [17/93] | 6.8 | 6.9 | 1000 |  |  | 
7 | Cc1c(C(=O)NC2CCOCC2)cc(-c2cc(C(=O)NC(C)(C)C)cc3ccccc23)n1CC1CCCCC1 [17/188] | 6.8 | 6.9 | 794 |  |  | 
8 | COCc1c(C(=O)NCC(C)(C)O)cc(-c2ccc(S(=O)(=O)NC(C)(C)C)c(C(C)(C)C)c2)n1CC1CCCCC1 [1/28] | 6.7 | 6.8 | 794 |  |  | 
9 | Cc1c(C(=O)NCC(C)(C)C(=O)O)cc(-c2ccc(S(=O)(=O)NC(C)(C)C)c(C(F)F)c2)n1CC1CCCCC1 [17/127] | 7.1 | 7.2 | 316 |  |  | 
10 | CNC(=O)c1ccc(-c2cc(C(=O)NC3CCOCC3)c(C)n2CC2CCCCC2)cc1C(C)(C)C [6/4] | < 4.7 | < 4.7 | 10000 |  |  | 
11 | Cc1c(C(=O)NCCCNS(C)(=O)=O)cc(-c2cc(C(C)(C)C)c3c(c2)C2(CCO3)CC2)n1CC1CCCCC1 [17/3] |  |  |  | 398 |  | 
12 | Cc1c(C(=O)N[C@H]2C[C@](C)(C(=O)O)C2)cc(-c2cc(C(C)(C)C)cc(C3(C)CC3)c2)n1CC1CCCCC1 [17/171] |  |  |  | 794 |  | 
13 | Cc1c(C(=O)N2CCS(=O)(=O)CC2)cc(-c2ccc(S(=O)(=O)NC(C)(C)C)c(C(C)(C)C)c2)n1CC1CCCCC1 [17/100] |  |  |  | 794 |  | 
14 | COCOc1ccc(-c2cc(C(=O)NC3COC3)c(C)n2CC2CCCCC2)cc1C(C)(C)C [1/24] |  |  |  | 631 |  | 
15 | Cc1c(C(=O)NCC2CNCCO2)cc(-c2cc(C(C)(C)C)c3c(c2)C2(CCO3)CC2)n1CC1CCCCC1.Cl (centres unmarked) [17/7] |  |  |  |  | 5.5/<4.7/<4.7 | 5.5/<4.7/<4.7
16 | Cc1c(C(=O)NC2(C(=O)O)CC2)cc(-c2cc(C(C)(C)C)c3c(c2)C2(CCO3)CC2)n1CC1CCCCC1 [17/50] |  |  |  | 3160 |  | 
17 | COC(C)(C)c1cc(-c2cc(C(=O)NC3COC3)c(C)n2CC2CCCCC2)cc(C(C)(C)C)c1 [1/107] |  |  |  | 794 |  | 
18 | Cc1c(C(=O)NCC(C)(C)O)cc(-c2cc(C(=O)N(C)C(C)(C)C)cc(C(C)(C)C)c2)n1CC1CCCCC1 [15/7] |  |  |  | 1260 |  | 
19 | Cc1c(C(=O)NCC(C)(C)N)cc(-c2cc(C(C)(C)C)c3c(c2)C2(CCO3)CC2)n1CC1CCCCC1.Cl [17/27] |  |  |  |  | 5.6/6.3/6.5 | 5.6/6.3/6.5

Reference: US9815851B2, “Pyrrolo carboxamides as modulators of orphan nuclear receptor RAR-related orphan receptor-gamma (RORγ, NR1F3) activity and for the treatment of chronic inflammatory and autoimmune diseases” (PHENEX PHARMACEUTICALS AG, priority 2011, dated 2017)
